# Patent US8592410B2, “Cyclic inhibitors of 11BETA-hydroxysteroid dehydrogenase 1” (Vitae Pharmaceuticals, Inc., priority 2008, dated 2013)
# Like-named read-outs stand apart in the source and are kept apart here.
# Key:
# [1] = molecular target: T1, CYP2C9 (Homo sapiens (Human), UniProt P11712); assay: Biological Test Example 9: CYP2C9 Inhibition (Invitrogen kit, OOMR fluorogenic substrate); conditions: read-out: Biological Test Example 9 CYP2C9 IC50
# [2] = molecular target: human recombinant cytochrome P450 3A4 (Homo sapiens (Human), UniProt P08684); assay: Biological Test Example 6: CYP3A4 Inhibition; assay type: in vitro ADME
# [3] = molecular target: T2, human recombinant cytochrome P450 2C19 (Homo sapiens (Human), UniProt P33261); assay: Biological Test Example 8: CYP2C19 Inhibition; conditions: read-out: Biological Test Example 8 CYP2C19, IC50
# [4] = molecular target: T3, human recombinant cytochrome P450 2C9 (Homo sapiens (Human), UniProt P11712); assay: Biological Test Example 7: CYP2C9 Inhibition (Naproxen O-demethylation); conditions: read-out: Biological Test Example 7 CYP2C9, IC50; [O-methyl-14C]-Naproxen substrate
# [5] = Biological Test Example 5: Fraction Unbound in Human Plasma (equilibrium dialysis); assay type: in vitro ADME
# [6] = molecular target: T3, human recombinant cytochrome P450 2C9
# [7] = molecular target: T2, human recombinant cytochrome P450 2C19
# [8] = molecular target: T1, CYP2C9; conditions: pH 8
# [9] = molecular target: T1, CYP2C9; assay: in vitro
# [10] = molecular target: T2, human recombinant cytochrome P450 2C19; assay: biochemical
# [11] = molecular target: 11β-HSD1 (human liver microsomes) (Homo sapiens (Human), UniProt P28845); conditions: read-out: Average % control inhibition at 100 nM
# [12] = read-out: Biological Test Example 6 CYP3A4, IC50
# Chain of human recombinant cytochrome P450 3A4 (P08684 whole entry): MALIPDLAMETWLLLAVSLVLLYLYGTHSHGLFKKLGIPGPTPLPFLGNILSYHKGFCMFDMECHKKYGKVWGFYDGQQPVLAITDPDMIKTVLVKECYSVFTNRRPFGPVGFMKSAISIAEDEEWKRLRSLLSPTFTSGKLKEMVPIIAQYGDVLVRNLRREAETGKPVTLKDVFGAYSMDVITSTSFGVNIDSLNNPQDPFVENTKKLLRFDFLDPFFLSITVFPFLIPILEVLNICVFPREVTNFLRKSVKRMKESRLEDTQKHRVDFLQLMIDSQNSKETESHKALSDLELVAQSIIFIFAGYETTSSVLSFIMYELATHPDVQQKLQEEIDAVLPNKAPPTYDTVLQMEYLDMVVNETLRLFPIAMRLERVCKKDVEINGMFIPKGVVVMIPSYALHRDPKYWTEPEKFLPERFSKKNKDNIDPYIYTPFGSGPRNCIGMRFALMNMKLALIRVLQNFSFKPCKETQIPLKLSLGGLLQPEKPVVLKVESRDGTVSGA
# T1 sequence (P11712 whole entry): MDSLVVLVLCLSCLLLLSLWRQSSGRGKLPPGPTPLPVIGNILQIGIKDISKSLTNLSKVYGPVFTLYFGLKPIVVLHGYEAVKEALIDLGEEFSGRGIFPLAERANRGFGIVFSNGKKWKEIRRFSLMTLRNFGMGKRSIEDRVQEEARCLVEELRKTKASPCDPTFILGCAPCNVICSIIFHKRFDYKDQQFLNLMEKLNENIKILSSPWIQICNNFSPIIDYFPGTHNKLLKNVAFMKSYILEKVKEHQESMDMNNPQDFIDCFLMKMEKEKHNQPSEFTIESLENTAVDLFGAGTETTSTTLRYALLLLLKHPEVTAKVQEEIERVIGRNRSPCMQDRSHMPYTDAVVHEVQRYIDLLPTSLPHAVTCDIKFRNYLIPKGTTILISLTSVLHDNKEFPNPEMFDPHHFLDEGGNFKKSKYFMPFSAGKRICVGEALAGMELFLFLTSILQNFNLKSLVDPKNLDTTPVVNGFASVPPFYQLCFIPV
# T3 sequence (P11712 whole entry): as above
# T2 sequence (P33261 whole entry): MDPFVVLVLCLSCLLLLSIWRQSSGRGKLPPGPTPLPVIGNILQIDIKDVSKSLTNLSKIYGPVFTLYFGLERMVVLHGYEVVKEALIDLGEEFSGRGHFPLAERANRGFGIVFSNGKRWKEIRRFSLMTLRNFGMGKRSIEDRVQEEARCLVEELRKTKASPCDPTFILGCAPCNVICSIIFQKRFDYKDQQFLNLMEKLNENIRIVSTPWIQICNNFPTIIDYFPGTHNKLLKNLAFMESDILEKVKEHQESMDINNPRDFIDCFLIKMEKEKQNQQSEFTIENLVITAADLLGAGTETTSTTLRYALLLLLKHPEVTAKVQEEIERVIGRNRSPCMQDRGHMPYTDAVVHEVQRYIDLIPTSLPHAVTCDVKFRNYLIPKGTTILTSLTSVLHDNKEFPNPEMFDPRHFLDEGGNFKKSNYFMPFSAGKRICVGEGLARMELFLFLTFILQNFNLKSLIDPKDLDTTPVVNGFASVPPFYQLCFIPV
# Chain of 11β-HSD1 (human liver microsomes) (P28845 whole entry): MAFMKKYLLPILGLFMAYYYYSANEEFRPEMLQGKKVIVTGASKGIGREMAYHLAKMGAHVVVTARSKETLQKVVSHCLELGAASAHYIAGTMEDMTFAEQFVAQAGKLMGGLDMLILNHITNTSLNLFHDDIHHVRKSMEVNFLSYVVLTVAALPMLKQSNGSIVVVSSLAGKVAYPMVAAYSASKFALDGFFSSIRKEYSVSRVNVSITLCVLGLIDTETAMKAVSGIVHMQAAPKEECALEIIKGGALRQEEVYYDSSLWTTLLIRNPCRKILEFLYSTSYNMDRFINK
smiles,measurement,setting,value
O=C1O[C@@](CCO)(c2ccccc2)CCN1c1cccc(-c2ccc(F)cc2F)c1 [Comparator Compound 1],IC50,[1],27 µM
O=C1OC(CCO)(c2ccccc2F)CCN1c1cccc(-c2ccc(F)cc2F)n1 (stereo not drawn) [Comparator Compound 2],IC50,[1],1.4 µM
O=C1O[C@@](CCO)(c2ccccc2)CCN1c1cccc(-c2ccc(F)cc2)n1 [Comparator Compound 4],IC50,[1],5.1 µM
"C[C@@H](c1ccc(-c2ccc(F)cc2F)cc1)N1CC[C@](CC(C)(C)O)(c2ccc(F)cc2)OC1=O [Comparator Compound 6, reference compound]",IC50,[2]; [12],4.4 µM
same,IC50,[3],8.6 µM
same,IC50,[4],2.3 µM
same,IC50,[1],5 µM
"C[C@@H](c1ccc(-c2ccc(F)cc2)cc1)N1CC[C@](CCC(N)=O)(c2ccccc2)OC1=O [Comparator Compound 11, reference compound]",fraction unbound,[5],0.007
same,IC50,[2]; [12],14.1 µM
"C[C@@H](c1ccc(-c2ccc(F)cc2)cc1)N1CC[C@](CC(C)(C)O)(c2ccccc2)OC1=O [Comparator Compound 12, reference compound]",fraction unbound,[5],0.004
same,IC50,[2]; [12],4.9 µM
"C[C@@H](c1ccc(Br)cc1)N1CC[C@](CC(C)(C)O)(c2ccc(F)cc2)OC1=O [Comparator Compound 13, reference compound]",IC50,[2]; [12],4.4 µM
same,IC50,[3],< 0.4 µM
same,IC50,[4],5.6 µM
same,IC50,[1],7.3 µM
"C[C@@H](c1ccc(OC(F)F)cc1)N1CC[C@](CCO)(c2ccc(F)cc2)OC1=O [Comparator Compound 14, reference compound]",IC50,[2]; [12],19.7 µM
same,IC50,[6],25.9 µM
same,IC50,[7],6.4 µM
same,IC50,[8],24.6 µM
"C[C@@H](c1ccc(Br)cc1)N1CC[C@](CC(C)(C)O)(c2ccccc2)OC1=O [Comparator Compound 15, reference compound]",IC50,[2]; [12],3.1 µM
same,IC50,[6],7.7 µM
same,IC50,[7],< 0.4 µM
same,IC50,[8],9.5 µM
"C[C@@H](c1ccc(-c2ccc(=O)n(C)n2)cc1)N1CC[C@](CCCO)(c2ccc(F)cc2)OC1=O [Example 10, (R)-6-(4-fluorophenyl)-6-(3-hydroxypropyl)-3-((S)-1-(4-(1-methyl-6-oxo-1,6-dihydropyridazin-3-yl)phenyl)ethyl)-1,3-oxazinan-2-one]",IC50,[8],14.2 µM
"C[C@@H](c1ccc(-c2ccc(=O)n(C)n2)cc1)N1CC[C@](CC(C)(C)O)(c2ccccc2)OC1=O [Example 12, (S)-6-(2-hydroxy-2-methylpropyl)-3-((S)-1-(4-(1-methyl-6-oxo-1,6-dihydropyridazin-3-yl)phenyl)ethyl)-6-phenyl-1,3-oxazinan-2-one]",fraction unbound,[5],0.022
same,IC50,[9],> 50 µM
same,IC50,[10],> 50 µM
"C[C@@H](c1ccc(-c2ccc(=O)n(C)n2)cc1)N1CC[C@](CC(C)(C)O)(c2ccc(F)cc2)OC1=O [Example 13, (S)-6-(4-fluorophenyl)-6-(2-hydroxy-2-methylpropyl)-3-((S)-1-(4-(1-methyl-6-oxo-1,6-dihydropyridazin-3-yl)phenyl)ethyl)-1,3-oxazinan-2-one]",IC50,[2]; [12],> 50 µM
same,IC50,[6],> 50 µM
same,IC50,[7],> 50 µM
"CCn1nc(-c2ccc([C@H](C)N3CC[C@](CC(C)(C)O)(c4ccccc4)OC3=O)cc2)ccc1=O [Example 14, (S)-3-((S)-1-(4-(1-ethyl-6-oxo-1,6-dihydropyridazin-3-yl)phenyl)ethyl)-6-(2-hydroxy-2-methylpropyl)-6-phenyl-1,3-oxazinan-2-one]",IC50,[2]; human,32.7 µM
same,IC50,[6],> 50 µM
same,IC50,[7],46.3 µM
"C[C@@H](c1ccc(-c2ccc(=O)n(CC(F)(F)F)n2)cc1)N1CC[C@](CC(C)(C)O)(c2ccccc2)OC1=O [Example 16, (S)-6-(2-hydroxy-2-methylpropyl)-3-((S)-1-(4-(6-oxo-1-(2,2,2-trifluoroethyl)-1,6-dihydropyridazin-3-yl)phenyl)ethyl)-6-phenyl-1,3-oxazinan-2-one]",IC50,[2]; [12],15.6 µM
same,IC50,[6],13 µM
same,IC50,[7],18.9 µM
"Cc1cc(-c2ccc([C@H](C)N3CC[C@](CC(C)(C)O)(c4ccccc4)OC3=O)cc2)nn(C)c1=O [Example 17*, 3-{(S)-1-[4-(1,5-Dimethyl-6-oxo-1,6-dihydro-pyridazin-3-yl)-phenyl]-ethyl}-(S)-6-(2-hydroxy-2-methyl-propyl)-6-phenyl-[1,3]oxazinan-2-one]",IC50,[2]; [12],31 µM
same,IC50,[3],> 50 µM
same,IC50,[4],> 50 µM
"Cc1cc(=O)n(C)nc1-c1ccc([C@H](C)N2CC[C@](CC(C)(C)O)(c3ccccc3)OC2=O)cc1 [Example 18*, 3-{(S)-1-[4-(1,4-Dimethyl-6-oxo-1,6-dihydro-pyridazin-3-yl)-phenyl]-ethyl}-(S)-6-(2-hydroxy-2-methyl-propyl)-6-phenyl-[1,3]oxazinan-2-one]",IC50,[2]; human,> 50 µM
same,IC50,[3],> 50 µM
same,IC50,[4],> 50 µM
same,inhibition at 0.1 µM,[11],63%
"C[C@@H](c1ccc(-c2ccc(=O)n(CC3CC3)n2)cc1)N1CC[C@](CC(C)(C)O)(c2ccccc2)OC1=O [Example 19*, 3-{(S)-1-[4-(1-Cyclopropylmethyl-6-oxo-1,6-dihydro-pyridazin-3-yl)-phenyl]-ethyl}-(S)-6-(2-hydroxy-2-methyl-propyl)-6-phenyl-[1,3]oxazinan-2-one]",IC50,[2]; human,5.7 µM
same,IC50,[7],5.4 µM
"C[C@@H](c1ccc(-c2ccc(=O)n(C3CC3)n2)cc1)N1CC[C@](CC(C)(C)O)(c2ccccc2)OC1=O [Example 20*, 3-{(S)-1-[4-(1-Cyclopropyl-6-oxo-1,6-dihydro-pyridazin-3-yl)-phenyl]-ethyl}-(S)-6-(2-hydroxy-2-methyl-propyl)-6-phenyl-[1,3]oxazinan-2-one]",IC50,[2]; [12],15.7 µM
same,IC50,[3],13.1 µM
same,IC50,[4],28.8 µM
